Values of other authors, collected in US8273362B2, “Ophthalmic emulsions containing prostaglandins” (Novagali Pharma S.A., priority 2004, dated 2012).

settings: not given

Row | Solubility in water | Molecule
1 | almost insoluble in water | CCNC(=O)CCC/C=C\C[C@@H]1[C@@H](/C=C/[C@@H](O)CCc2ccccc2)[C@H](O)C[C@@H]1O [Bimatoprost, bimatoprost]
2 | almost insoluble in water | CC(C)OC(=O)CCC/C=C\C[C@@H]1[C@@H](CC[C@@H](O)CCc2ccccc2)[C@H](O)C[C@@H]1O [Latanoprost, latanoprost]
3 | almost insoluble in water | CC(C)OC(=O)CCC/C=C\C[C@@H]1[C@@H](/C=C/C(F)(F)COc2ccccc2)[C@H](O)C[C@@H]1O [tafluprost]
4 | almost insoluble in water | CCCCCCCC(=O)CC[C@@H]1[C@@H](C/C=C\CCCC(=O)OC(C)C)[C@@H](O)C[C@H]1O [unoprostone isopropyl]

Continued, molecule first:

Row | Molecule | Solubility in water
5 | CCCCC[C@H](O)/C=C/[C@H]1[C@H](O)CC(=O)[C@H]1C/C=C\CCCC(=O)O [8-isoprostaglandinE2] | almost insoluble in water
6 | CC(C)OC(=O)CCC/C=C\C[C@@H]1[C@@H](/C=C/[C@@H](O)COc2cccc(C(F)(F)F)c2)[C@H](O)C[C@@H]1O [Travoprost, travoprost] | almost insoluble in water

settings: ophthalmic preparations

Row | Molecule | Toxicity of long term use
7 | benzalkonium chloride [BAK] | important toxicity

settings: at 0.3% w/v

Row | Molecule | Safety for ocular administration
8 | CCCCCCCC/C=C\CCCCCCCCN [oleylamine] | safe
9 | CCCCCCCCCCCCCCCCCCN [stearylamine] | safe
